In publication PMC8229396, “Myeloperoxidase Inhibitory and Antioxidant Activities of (E)-2-Hydroxy-α-aminocinnamic Acids Obtained through Microwave-Assisted Synthesis” (Pharmaceuticals, 2021) one finds IC50 and inhibition data, which are given here for 8 compounds.

The structures appear in SMILES notation.

Broadly, the IC50 is the concentration at which inhibition is half-maximal. A low value points to greater potency in that assay. Usually inhibition stands for how much of the control response was suppressed.

Holding throughout (type): biochemical
Test [1] has as its target T1, Myeloperoxidase (MPO) (Homo sapiens, UniProt P05164). As to the kind of experiment: MPO peroxidation assay (o-dianisidine/H2O2), dose-response.
The target in test [2] is T1, Myeloperoxidase (MPO). The test is described as follows: MPO peroxidation assay (o-dianisidine/H2O2), single concentration […].
Test [3] concerns the target T1, Myeloperoxidase (MPO). The test is described as follows: MPO peroxidation assay ([…] at […]) and taurine-chloramine chlorination assay ([…] at […]).

T1 sequence (P05164 165-273): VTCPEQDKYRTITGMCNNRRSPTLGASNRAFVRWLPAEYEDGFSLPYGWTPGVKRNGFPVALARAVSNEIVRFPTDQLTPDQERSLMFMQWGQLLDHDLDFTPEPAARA
T1 sequence (P05164 279-745): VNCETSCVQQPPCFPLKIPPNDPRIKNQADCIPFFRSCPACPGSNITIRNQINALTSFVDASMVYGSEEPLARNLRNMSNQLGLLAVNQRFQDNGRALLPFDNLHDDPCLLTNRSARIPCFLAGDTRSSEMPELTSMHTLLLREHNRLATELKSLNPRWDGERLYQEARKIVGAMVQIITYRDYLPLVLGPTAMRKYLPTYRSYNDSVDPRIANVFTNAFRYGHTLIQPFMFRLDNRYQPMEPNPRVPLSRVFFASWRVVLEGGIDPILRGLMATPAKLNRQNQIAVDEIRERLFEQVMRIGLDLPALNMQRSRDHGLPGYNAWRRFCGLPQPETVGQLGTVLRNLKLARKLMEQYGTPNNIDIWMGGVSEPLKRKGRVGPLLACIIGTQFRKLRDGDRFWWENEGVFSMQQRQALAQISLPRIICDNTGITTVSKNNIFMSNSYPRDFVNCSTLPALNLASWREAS

The compound `N/C(=C/c1ccccc1O)C(=O)O` [2a, (E)-(2-hydroxy)-α-aminocinnamic acid] showed an IC50 against Myeloperoxidase (MPO) [1] of 45 ± 4 µM.
Regarding `N/C(=C/c1cc(Br)ccc1O)C(=O)O` [2b, (E)-(5-Bromo-2-hydroxy)-α-aminocinnamic acid], the inhibition at 100 µM at Myeloperoxidase (MPO) [2] is 48.4 ± 4.1%.
At Myeloperoxidase (MPO) [3], `N/C(=C/c1cc(Cl)ccc1O)C(=O)O` [2c, (E)-(5-Chloro-2-hydroxy)-α-aminocinnamic acid] yielded an inhibition at 100 µM of 40.5 ± 4.4%.
With `CCOc1cccc(/C=C(/N)C(=O)O)c1O` [2e, (E)-(3-Ethoxy-2-hydroxy)-α-aminocinnamic acid], at Myeloperoxidase (MPO) [1], the IC50 is 43 ± 4 µM.
For the compound `N/C(=C/c1ccc(O)cc1O)C(=O)O` [2f, (E)-(2,4-dihydroxy)-α-aminocinnamic acid], at Myeloperoxidase (MPO) [1], half-maximal inhibition (IC50) required 30 ± 5 µM.
In the case of `N/C(=C/c1cc(O)ccc1O)C(=O)O` [2h, (E)-(2,5-dihydroxy)-α-aminocinnamic acid], half-maximal inhibition at Myeloperoxidase (MPO) [1] (IC50) required 26 ± 2 µM.
`Nc1ccc(O)c(C(=O)O)c1` [5-ASA, 5-aminosalicylic acid, reference compound] returned an IC50 on Myeloperoxidase (MPO) [1] of 39 ± 2 µM.
`COc1ccc2c(c1)c(CC(=O)O)c(C)n2C(=O)c1ccc(Cl)cc1` [indomethacin, reference compound]: the IC50 against Myeloperoxidase (MPO) [1] was 29 ± 2 µM.
